{"source": "patent US20180021323A1", "about": "“FLIP - A SELECTIVE MOLECULAR TARGET OF SENESCENT CELLS” (BIOVENTURES, LLC, priority 2015, published 2018)", "key": {"[1]": {"test_system": "IR-induced senescent (SC) WI38 cells", "assay": "Cell viability of IR-induced senescent (SC) WI38 cells, 72 h treatment", "format": "cell-based, human", "conditions": "for LD50 (SC): IR-induced senescent (SC) WI38 cells, viable cells determined 72 h after treatment; for killing of IR-induced senescent (SC) WI38 cells (viable cells, % of vehicle control): increasing concentrations, 72 h", "protocol": "(§1) The expression of FLIP in normal (NC) and IR-induced senescent (SC) WI38 cells was determined by Western blot 24 h after they were treated with vehicle (VEH) or Drox (10 μM). Treatment with droxinostat (Drox) down-regulates the expression of FLIP mRNA in IR-induced senescent (SC) WI38 cells (FIG. 3B). IR-induced senescent (SC) WI38 cells were treated with vehicle (VEH) or Drox (10 μM) for 6 h and the expression of FLIP mRNA in these cells was determined by qPCR. […] Viable cells were determined 72 h after normal (NC) and IR-induced senescent (SC) WI38 cells were treated with vehicle (VEH) or increasing concentrations of Drox. The data are presented as a percentage of control cells treated with VEH. Treatment with droxinostat (Drox), piperlongumine (PL) and EF-24 down-regulates the expression of FLIP in IR-induced senescent (SC) WI38 cells (FIG. 3E). Normal (NC) and IR-induced senescent (SC) WI38 cells were treated with vehicle (VEH), Drox (10 μM), PL (10 μM), and EF-24 (10 μM) for 24 h and the expression of FLIP in these cells was determined by Western blots. […] Viable cells were determined 72 h after normal (NC) and IR-induced senescent (SC) WI38 cells were treated with vehicle (VEH) or increasing concentrations of Drox, PL, and EF-24. LD50 values for these molecules against NC and SC were calculated and presented."}, "FLIP": {"test_system": "FLIP", "assay": "FLIP protein expression by Western blot in IR-induced senescent WI38 cells", "format": "cell-based, human", "conditions": "10 μM, 24 h", "source_text": "Treatment with doxycycoline (DOX) dose-dependently induces FLIP-shRNA expression in WI38 cell line after the cells were stably transfected with a plasmid containing FLIP-shRNA and red fluorescent protein (RFP) genes (FIG. 2A). Induction of FLIP-shRNA by doxycycoline down-regulates FLIP expression in IR-induced senescent WI38 cells stably transfected with FLIP-shRNA but not in vector transfected cells (FIG. 2B).\nas §1"}, "normal (NC) WI38 cells": {"test_system": "normal (NC) WI38 cells", "assay": "Cell viability of normal (NC) WI38 cells, 72 h treatment", "format": "cell-based", "conditions": "for LD50 (NC): normal (NC) WI38 cells, viable cells determined 72 h after treatment", "protocol": "as §1, with “Treatment with droxinostat (Drox) down-regulates the expression of FLIP mRNA in IR-induced senescent (SC) WI38 cells (FIG. 3B).” left out, “Treatment with droxinostat (Drox), piperlongumine (PL) and EF-24 down-regulates the expression of FLIP in IR-induced senescent (SC) WI38 cells (FIG. 3E).” left out"}, "FLIP mRNA": {"test_system": "FLIP mRNA", "assay": "FLIP mRNA expression by qPCR in IR-induced senescent WI38 cells", "format": "cell-based, human", "conditions": "10 μM, 6 h", "protocol": "as §1"}}, "data": [{"smiles": "O=C1/C(=C/c2ccccc2F)CNC/C1=C\\c1ccccc1F", "note": "[EF-24]", "values": [{"measurement": "LD50 (SC)", "setting": "[1]", "result": 1.05, "unit": "µM"}, {"measurement": "killing of IR-induced senescent (SC) WI38 cells (viable cells, % of vehicle control)", "setting": "[1]", "result": "selectively kill"}, {"measurement": "expression of FLIP (Western blot, FIG. 3E)", "setting": "FLIP", "result": "down-regulates"}, {"measurement": "LD50 (NC)", "setting": "normal (NC) WI38 cells", "result": 6.08, "unit": "µM"}]}, {"smiles": "Cc1cc(Cl)ccc1OCCCC(=O)NO", "note": "[Droxinostat, 4-(4-chloro-2-methylphenoxy)-N-hydroxybutanamide]", "values": [{"measurement": "LD50 (SC)", "setting": "[1]", "result": 8.26, "unit": "µM"}, {"measurement": "killing of IR-induced senescent (SC) WI38 cells (viable cells, % of vehicle control)", "setting": "[1]", "result": "selectively kill"}, {"measurement": "expression of FLIP mRNA (qPCR, FIG. 3B)", "setting": "FLIP mRNA", "result": "down-regulates"}, {"measurement": "expression of FLIP (Western blot, FIG. 3A)", "setting": "FLIP", "result": "down-regulated"}, {"measurement": "expression of FLIP (Western blot, FIG. 3E)", "setting": "FLIP", "result": "down-regulates"}, {"measurement": "effect on normal (NC) WI38 cells (viable cells, % of vehicle control)", "setting": "normal (NC) WI38 cells; increasing concentrations, 72 h", "result": "minimal effect"}, {"measurement": "LD50 (NC)", "setting": "normal (NC) WI38 cells", "result": 39.58, "unit": "µM"}]}, {"smiles": "COc1cc(/C=C/C(=O)N2CCC=CC2=O)cc(OC)c1OC", "note": "[Piperlongumine, piperlongumine]", "values": [{"measurement": "LD50 (SC)", "setting": "[1]", "result": 7.05, "unit": "µM"}, {"measurement": "killing of IR-induced senescent (SC) WI38 cells (viable cells, % of vehicle control)", "setting": "[1]", "result": "selectively kill"}, {"measurement": "expression of FLIP (Western blot, FIG. 3E)", "setting": "FLIP", "result": "down-regulates"}, {"measurement": "LD50 (NC)", "setting": "normal (NC) WI38 cells", "result": 24.25, "unit": "µM"}]}]}
